Measured values as given in patent US11826364B2, “Treatment for epilepsy” (Katholieke Universiteit Leuven, priority 2017, dated 2023).

Assays:
[1] = Solubility in the injection solvent (PEG200:DMSO 1:1); format: physicochemical; details: 20 mg/kg dose
Protocol: For experiments with zebrafish larvae, dry samples and compounds were dissolved in 100% dimethyl sulfoxide (DMSO, spectroscopy grade) as 100-fold concentrated stocks and diluted in embryo medium to a final concentration of 1% DMSO content, except for PTZ which was dissolved in embryo medium (0% DMSO). Control groups were treated with 1% DMSO (VHC) in accordance with the final solvent concentration of tested samples or compounds. For mice experiments, a mixture of poly-ethylene glycol M.W. 200 (PEG200) and 100% DMSO (spectroscopy grade) (1:1 PEG200:DMSO) was used as solvent and VHC. Pentylenetetrazole and valproate were purchased from Sigma-Aldrich.

zebrafish larvae [2] = assay: Toxicity evaluation, maximum tolerated concentration (MTC) in zebrafish larvae; format: in vivo, zebrafish (Danio rerio); details: highest concentration without death, toxicity or locomotor impairment
Protocol: Maximum tolerated concentration (MTC) was determined prior to further experiments and used as the highest test concentration. Experiments were described as described in Copmans et al. (2018) ACS chemical neuroscience. MTC was investigated by exposing 12 larvae of 6 dpf to a range of concentrations in a 100 μl volume during 18 hours. The following parameters were investigated after 2 and 18 hours of exposure: touch response, morphology, posture, edema, signs of necrosis, swim bladder, and heartbeat.

zebrafish larvae [3] = assay: Zebrafish pentylenetetrazole (PTZ) seizure model, behavioral analysis; format: in vivo, zebrafish (Danio rerio); details: 2 hours incubation; for antiseizure activity at lower concentrations: MTC/2 and MTC/4
Protocol: Experiments were performed as [Add references please: Copmans (2018), ACS chemical neuroscience; Copmans et al. (2018) Neurochem. Int. 112, 124-133; Afrikanova et al. (2013) PLoS One 8, e54166; Orellana-Paucar et al. (2012) Epilepsy Behav 24, 14-22]. In brief, a single 7 dpf larva was placed in each well of a 96-well plate and treated with either VHC (1% DMSO) or test compound in a 100 μl volume. Larvae were incubated in dark for 2 hours at 28° C., whereafter 100 μl of either VHC (embryo medium) or 40 mM PTZ (20 mM working concentration) was added to each well. Next, within 5 minutes the 96-well plate was placed in an automated tracking device (ZebraBox Viewpoint, France) and larval behavior was video recorded for 30 minutes. The complete procedure was performed in dark conditions using infrared light. Total locomotor activity was recorded by ZebraLab software (Viewpoint, France) and expressed in actinteg units, which is the sum of pixel changes detected during the defined time interval (5 minutes). Larval behavior was depicted as mean actinteg units per 5 minutes in the 30 minute recording period and over consecutive time intervals. Data are expressed as mean±SD for single experiments with regards to screening, and as mean±SEM for single experiments and for independent experiments of which the means or data are pooled.
In the first secondary screen three replicate wells were used per sample (100 μg/mL) tested and each experimental plate contained 12 internal control wells. In the second secondary screen six replicate wells were used per sample and concentration tested (100, 33, and 11 μg/mL), again 12 internal control wells were used per experimental plate.

zebrafish larvae [4] = assay: Non-invasive local field potential (LFP) recordings from the optic tectum, zebrafish PTZ seizure model; format: in vivo, zebrafish (Danio rerio); details: MTC (20 μg/mL); 2 hours incubation; 10 min recording
Protocol: Non-invasive LFP recordings were measured from the midbrain (optic tectum) of 7 dpf zebrafish larvae pre-incubated with VHC only, PTZ only, compound and VHC, or compound and PTZ. Experiments were performed as described in Copmans et al. (2018) Neurochem. Int. 112, 124-133;
Copmans (2018) ACS chemical neuroscience. In brief, larvae were incubated for approximately 2 hours with VHC (1% DMSO) or test compound (1% DMSO) in a 100 μL volume. After incubation, an equal volume of VHC (embryo medium) or 40 mM PTZ (20 mM working concentration) was added to the well for 15 minutes prior to recording. These steps occurred at 28° C., while further manipulation and electrophysiological recordings occurred at room temperature (±21° C.). The larva was embedded in 2% low melting point agarose (Invitrogen) and the signal electrode (an electrode inside a soda-glass pipet (1412227, Hilgenberg) pulled with a DMZ Universal Puller (Zeitz, Germany), diameter±20 microns, containing artificial cerebrospinal fluid (ACSF: 124 mM NaCl, 10 mM glucose, 2 mM KCl, 2 mM MgSO4, 2 mM CaCl2, 1.25 mM KH2PO4, and 26 mM NaHCO3, 300-310 mOsmols)) was positioned on the skin covering the optic tectum. A differential extracellular amplifier (DAGAN, USA) amplified the voltage difference between the signal (measured by the signal electrode) and the reference electrode. The differential signal was band pass filtered at 0.3-300 Hz and digitized at 2 kHz via a PCI-6251 interface (National instruments, UK) using WinEDR (John Dempster, University of Strathclyde, UK). A grounding electrode grounded the electrical system. All electrodes were connected with ACSF. Each recording lasted 600 seconds. Manual analysis was completed by quantification of the number, cumulative duration, and mean duration of epileptiform-like events with Clampfit 10.2 software (Molecular Devices Corporation, USA). An electrical discharge was considered epileptiform if it was a poly-spiking event comprising at least 3 spikes with a minimum amplitude of three times the baseline amplitude and a duration of at least 100 milliseconds. Data are expressed as mean±SD.

NMRI mice = assay: Mouse 6-Hz (44 mA) psychomotor seizure model; format: in vivo; details: 30 min before stimulation; for mean seizure duration (±SD): Example 8; for mean seizure duration: Example 7
Protocol: Experiments were performed as described in Copmans et al. (2018) ACS chemical neuroscience. […] Mice were manually restrained and a drop of ocular anesthetic (0.5% lidocaine) was applied to the corneas before stimulation. Following electrical current stimulation, the mouse was released in a transparent cage for behavioral observation, which was video-recorded. […] In addition, facial and mouth jerking as well as head nodding were observed occasionally. Seizure durations were measured during the experiment by experienced researchers, familiar with the different seizure behaviors. In addition, seizure durations were determined by blinded video analysis to confirm or correct the initial observations. Data are expressed as mean±SD.

| SMILES | solubility in the solvent [1] | maximum tolerated concentration (MTC) (zebrafish larvae [2]) [µg/mL] | antiseizure activity at lower concentrations (zebrafish larvae [3]) | PTZ-induced seizure behavior in 5 min time intervals (zebrafish larvae [3]; at MTC) | PTZ-induced seizure behavior in the 30 min recording period (zebrafish larvae [3]; at MTC) | cumulative duration of PTZ-induced epileptiform events (zebrafish larvae [4]) | number of PTZ-induced epileptiform events (zebrafish larvae [4]) | mean seizure duration (±SD) (NMRI mice; 2.5 mg/kg i.p.) [s] | mean seizure duration (±SD) (NMRI mice; 5 mg/kg i.p.) [s] | mean seizure duration (±SD) (NMRI mice; 10 mg/kg i.p.) [s] | PTZ-induced seizure behavior in 5 min time intervals (zebrafish larvae [3]; at the tested concentration) | other results |
| --- | --- | --- | --- | --- | --- | --- | --- | --- | --- | --- | --- | --- |
| Cc1cc2ccc3c(c2cn1)OC(C(C)C)C3=O (stereo not shown) [TMC-120A] | poor solubility | 20 | No significant antiseizure activity | significant reduction | not TMC-120A, significantly lowered | significantly lowered | significantly lowered | 13 | 20 | 17 | – | percentage of larvae with PTZ-induced epileptiform activity (zebrafish larvae [4]): significantly lowered the percentage of larvae with PTZ-induced epileptiform activity by more than half; mean seizure duration (±SD) (NMRI mice; 1.25 mg/kg i.p.): 15 s |
| CC(C)=C1Oc2c(ccc3cc(C)ncc23)C1=O [TMC-120B] | poor solubility | 20 | No significant antiseizure activity | significant reduction | significantly lowered | significantly lowered | significantly lowered | 27 | 23.5 | 10 | – | mean seizure duration (NMRI mice; 2.5 mg/kg i.p.): 27 s; mean seizure duration (NMRI mice; 5 mg/kg i.p.): 23.5 s; mean seizure duration (NMRI mice; 10 mg/kg i.p.): 10 s; mean seizure duration (NMRI mice; 20 mg/kg i.p.): 27.5 s; mean seizure duration (±SD) (NMRI mice; 20 mg/kg i.p.): 27.5 s |
| Cc1cc2ccc3c(c2cn1)OC(O)(C(C)C)C3=O (stereo not shown) [TMC-120C] | – | – | – | – | – | – | – | – | – | – | significant reduction | PTZ-induced seizure behavior in the 30 min recording period (zebrafish larvae [3]; at the tested concentration): lowered PTZ-induced seizure behavior |
| CC1=Cc2ccc3c(c2CO1)O[C@@H](C(C)C)C3=O [penicisochroman G] | – | – | – | – | – | – | – | – | – | – | significant reduction | – |
| CC1=Cc2ccc3c(c2CO1)OC(=C(C)C)C3=O [ustusorane B] | – | – | – | – | – | – | – | – | – | – | significant reduction | – |
